# Measurements taken from patent US20110034507A1, “FARNESOID X RECEPTOR AGONISTS” (SMITHKLINE BEECHAM CORPORATION, priority 2007, published 2011).
# Target: T1, Human FXRα Ligand Binding Domain (Homo sapiens, UniProt Q96RI1)
# T1 construct: polyhistidine (pRSET-A vector leader) (N); made in house; host or cells: E. coli BL21 (DE3), pRSET-A vector
# T1 sequence (Q96RI1 237-472 isoform Q96RI1-2): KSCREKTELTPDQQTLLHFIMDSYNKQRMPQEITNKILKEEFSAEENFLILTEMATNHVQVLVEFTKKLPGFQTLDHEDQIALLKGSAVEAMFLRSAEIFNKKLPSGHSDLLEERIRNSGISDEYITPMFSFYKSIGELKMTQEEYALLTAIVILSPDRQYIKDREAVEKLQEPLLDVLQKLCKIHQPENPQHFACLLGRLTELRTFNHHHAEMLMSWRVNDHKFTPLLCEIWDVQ
# Experiment: FXR Cofactor Binding Assay (ligand mediated SRC-1 cofactor peptide interaction, time resolved fluorescence)
# Format: biochemical
# Details: FXRα LBD / SRC-1 (LCD2, 676-700) peptide, TRF; read-out: Activity (pEC50) (converted)
# Description: Determination of a ligand mediated cofactor peptide interaction to quantify ligand binding to the nuclear receptor Farnesoid X Receptor (FXR). The method measures the ability of putative ligands to modulate the interaction between the purified bacterial expressed FXRα ligand binding domain (LBD) and a synthetic biotinylated peptide based on residues 676-700 of steroid receptor coactivator-1 (SRC-1) (LXXLL-containing domain-2 where L is the amino acid leucine and X indicates any other amino acid (LCD2), 676-700). The sequence of the SRC-1 peptide used is as published in Iannone, M. A., et al., 2001 Cytometry 44:326-337 where the N-terminus was biotinylated (B) and the C-terminus was amidated. Detection of the associated complex was measured by time resolved fluorescence (TRF). The purified LBD of FXR was labeled with biotin, then mixed with stoichiometric amounts of allophycocyanin (APC) labeled streptavidin (Molecular Probes). The biotinylated peptide was then mixed with a ½ stoichiometric amount of europium labeled streptavidin (Wallac Inc). Each was then blocked with a 5 fold excess of biotin and allowed to equilibrate for 15 min. Equimolar amounts of receptor and peptide were mixed together and were allowed to equilibrate for at least 30 min prior to the addition to either a variable or constant concentrations of the sample for which the affinity is to be determined. After equilibration, the time-resolved fluorescent signal was quantitated using a fluorescent plate reader. The affinity of the test compound was estimated from a plot of fluorescence versus concentration of test compound added.
# Ligands that promote the complex formation induce a concentration-dependent increase in time-resolved fluorescent signal.
# Human FXRα Ligand Binding Domain (FXRα LBD) was expressed in E. coli strain BL21 (DE3) as an amino-terminal polyhistidine tagged fusion protein. Expression was under the control of an isopropyl-β-D-thiogalactopyranoside (IPTG) inducible T7 promoter. DNA encoding this recombinant protein is subcloned into the pRSET-A expression vector (Invitrogen). The coding sequence of Human FXRα LBD was derived from Genbank accession number U 68233 (amino acids 237 to 472).
# Ten-liter fermentation batches were grown in Rich PO4 media with 0.1 mg/mL Ampicillin at 25° C. for 12 hours, cooled to 9° C. and held at that temperature for 36 hours to a density of OD600=14. At this cell density, 0.25 mM IPTG is added and induction proceeded for 24 hours at 9° C., to a final OD600=16. Cells are harvested by centrifugation (20 minutes, 3500×gravity, 4° C.), and concentrated cell slurries were stored in phosphate buffered saline (PBS) at […].
# Routinely, 30-40 g cell paste (equivalent to 2-3 liters of the fermentation batch) was resuspended in 200-250 mL Tris buffered saline (TBS), pH 7.2 (25 mM Tris-hydroxymethylamino methane (Tris), 150 mM sodium chloride). Cells were lysed by passing 3 times through a French Press and cell debris was removed by centrifugation (30 minutes, 20,000×gravity, 4° C.). The cleared supernatant was filtered through course pre-filters, and TBS, pH 7.2, 500 mM imidazole was added to obtain a final imidazole concentration of 50 mM. This lysate was loaded onto a column (6×8 cm) packed with Sepharose [Ni^++ charged] Chelation resin (Pharmacia) and pre-equilibrated with TBS pH 7.2/50 mM imidazole. After washing to baseline absorbance with equilibration buffer, the column was washed with one column volume of TBS pH 7.2 containing 90 mM imidazole. FXRα LBD was eluted directly with 365 mM imidazole. Column fractions were pooled and dialyzed against TBS, pH 7.2, containing 0.5 mM EDTA and 5 mM DTT. The dialyzed protein sample was concentrated using Centri-prep 10 K (Amicon) and subjected to size exclusion, using a column (3×90 cm) packed with Sepharose S-75 resin (Pharmacia) pre-equilibrated with TBS, pH 7.2, containing 0.5 mM ethylene diamine tetraacetic acid (EDTA) and 5 mM dithiothreitol (DTT).
row,EC50,Compound
1,102 to 1000 nM,"Cc1cccc(C)c1OCc1noc(C(C)C)c1COc1ccc2c(ccn2Cc2cccc(C(=O)O)c2)c1 [Example 1, 3-{[5-({[3-{[(2,6-dimethylphenyl)oxy]methyl}-5-(1-methylethyl)-4-isoxazolyl]methyl}oxy)-1H-indol-1-yl]methyl}benzoic acid]"
2,1020 to 10000 nM,"CC(C)c1onc(COc2c(F)cc(F)cc2F)c1COc1ccc2c(ccn2Cc2cccc(C(=O)O)c2)c1 [Example 2, 3-[(5-{[(5-(1-methylethyl)-3-{[(2,4,6-trifluorophenyl)oxy]methyl}-4-isoxazolyl)methyl]oxy}-1H-indol-1-yl)methyl]benzoic acid]"
3,102 to 1000 nM,"CC(C)c1onc(COc2c(Cl)cc(Cl)cc2Cl)c1COc1ccc2c(ccn2Cc2cccc(C(=O)O)c2)c1 [Example 3, 3-[(5-{[(5-(1-methylethyl)-3-{[(2,4,6-trichlorophenyl)oxy]methyl}-4-isoxazolyl)methyl]oxy}-1H-indol-1-yl)methyl]benzoic acid]"
4,1020 to 10000 nM,"CC(C)c1onc(CNc2c(Cl)cccc2Cl)c1COc1ccc2c(ccn2Cc2cccc(C(=O)O)c2)c1 [Example 4, 3-{[5-({[3-{[(2,6-dichlorophenyl)amino]methyl}-5-(1-methylethyl)-4-isoxazolyl]methyl}oxy)-1H-indol-1-yl]methyl}benzoic acid]"
5,102 to 1000 nM,"CC(C)c1onc(COc2c(Br)cccc2Br)c1COc1ccc2c(ccn2Cc2cccc(C(=O)O)c2)c1 [Example 5, 3-{[5-({[3-{[(2,6-dibromophenyl)oxy]methyl}-5-(1-methylethyl)-4-isoxazolyl]methyl}oxy)-1H-indol-1-yl]methyl}benzoic acid]"
6,1020 to 10000 nM,"CC(C)c1onc(CSc2nccs2)c1COc1ccc2c(ccn2Cc2cccc(C(=O)O)c2)c1 [Example 6, 3-({5-[({5-(1-methylethyl)-3-[(1,3-thiazol-2-ylthio)methyl]-4-isoxazolyl}methyl)oxy]-1H-indol-1-yl}methyl)benzoic acid]"
7,102 to 1000 nM,"CC(C)c1onc(-c2ccccc2OC(F)(F)F)c1COc1ccc2c(ccn2Cc2cccc(C(=O)O)c2)c1 [Example 7, 3-[(5-{[(5-(1-Methylethyl)-3-{2-[(trifluoromethyl)oxy]phenyl}-4-isoxazolyl)methyl]oxy}-1H-indol-1-yl)methyl]benzoic acid]"
8,102 to 1000 nM,"CC(C)c1onc(-c2c(Cl)cncc2Cl)c1COc1ccc2ccn(Cc3cccc(C(=O)O)c3)c2c1 [Example 8, 3-{[6-({[3-(3,5-dichloro-4-pyridinyl)-5-(1-methylethyl)-4-isoxazolyl]methyl}oxy)-1H-indol-1-yl]methyl}benzoic acid]"
9,102 to 1000 nM,"CC(C)c1onc(-c2c(Cl)cccc2Cl)c1COc1ccc2cc(-c3ccc(C(=O)O)cc3)sc2c1 [Example 9, 4-[6-({[3-(2,6-Dichlorophenyl)-5-(1-methylethyl)-4-isoxazolyl]methyl}oxy)-1-benzothien-2-yl]benzoic acid]"
10,102 to 1000 nM,"CC(C)c1onc(-c2c(Cl)cccc2Cl)c1COc1ccc2c(ccn2C(=O)c2cccc(C(=O)O)c2)c1 [Example 10, 3-{[5-({[3-(2,6-Dichlorophenyl)-5-(1-methylethyl)-4-isoxazoly]methyl}oxy)-1H-indol-1-yl]carbonyl}benzoic acid]"
11,102 to 1000 nM,"CC(C)c1onc(-c2c(Cl)cccc2Cl)c1COc1ccc2nc(-c3cccc(C(=O)O)c3)sc2c1 [Example 11, 3-[6-({[3-(2,6-Dichlorophenyl)-5-(1-methylethyl)-4-isoxazolyl]methyl}oxy)-1,3-benzothiazol-2-yl]benzoic acid]"
12,102 to 1000 nM,"CC(C)c1onc(-c2c(Cl)cccc2Cl)c1COc1ccc2c(ccn2Cc2cccc(-c3nnn[nH]3)c2)c1 [Example 12, 5-({[3-(2,6-Dichlorophenyl)-5-(1-methylethyl)-4-isoxazolyl]methyl}oxy)-1-{[3-(1H-tetrazol-5-yl)phenyl]methyl}-1H-indole]"
13,102 to 1000 nM,"CC(C)c1onc(-c2c(Cl)cccc2Cl)c1COc1ccc2c(ccn2Cc2ccc(C(=O)O)cc2)c1 [Example 13, 4-{[5-({[3-(2,6-Dichlorophenyl)-5-(1-methylethyl)-4-isoxazolyl]methyl}oxy)-1H-indol-1-yl]methyl}benzoic acid]"
14,102 to 1000 nM,"CC(C)c1onc(COc2c(Cl)cc(F)cc2Cl)c1COc1ccc2c(ccn2Cc2cccc(C(=O)O)c2)c1 [Example 14, 3-{[5-({[3-{[(2,6-Dichloro-4-fluorophenyl)oxy]methyl}-5-(1-methylethyl)-4-isoxazolyl]methyl}oxy)-1H-indol-1-yl]methyl}benzoic acid]"
15,102 to 1000 nM,"CC(C)c1onc(COc2c(Cl)cccc2Cl)c1COc1ccc2c(ccn2Cc2cccc(C(=O)O)c2)c1 [Example 15, 3-{[5-({[3-{[(2,6-Dichlorophenyl)oxy]methyl}-5-(1-methylethyl)-4-isoxazolyl]methyl}oxy)-1H-indol-1-yl]methyl}benzoic acid]"
16,102 to 1000 nM,"CC(C)c1onc(-c2c(Cl)cccc2Cl)c1COc1ccc2sc(-c3ccc(C(=O)O)cc3)cc2c1 [Example 16, 4-[5-({[3-(2,6-Dichlorophenyl)-5-(1-methylethyl)-4-isoxazolyl]methyl}oxy)-1-benzothien-2-yl]benzoic acid]"
17,102 to 1000 nM,"CC(C)c1onc(-c2c(Cl)cccc2Cl)c1COc1ccc2cc(-c3cncc(C(=O)O)c3)ccc2c1 [Example 17, 5-[6-({[3-(2,6-Dichlorophenyl)-5-(1-methylethyl)-4-isoxazolyl]methyl}oxy)-2-naphthalenyl]-3-pyridinecarboxylic acid]"
18,102 to 1000 nM,"CC(C)c1onc(-c2c(Cl)cccc2Cl)c1COc1ccc2cc(-c3cccc(C(=O)O)n3)ccc2c1 [Example 18, 6-[6-({[3-(2,6-Dichlorophenyl)-5-(1-methylethyl)-4-isoxazolyl]methyl}oxy)-2-naphthalenyl]-2-pyridinecarboxylic acid]"
19,102 to 1000 nM,"CC(C)c1onc(-c2c(Cl)cccc2Cl)c1COc1ccc2cc(-c3ccc(C(=O)O)nc3)ccc2c1 [Example 19, 5-[6-({[3-(2,6-Dichlorophenyl)-5-(1-methylethyl)-4-isoxazolyl]methyl}oxy)-2-naphthalenyl]-2-pyridinecarboxylic acid]"
20,102 to 1000 nM,"CC(C)c1onc(-c2c(Cl)cccc2Cl)c1COc1ccc2cc(-c3ccnc(C(=O)O)c3)ccc2c1 [Example 20, 4-[6-({[3-(2,6-Dichlorophenyl)-5-(1-methylethyl)-4-isoxazolyl]methyl}oxy)-2-naphthalenyl]-2-pyridinecarboxylic acid]"
21,102 to 1000 nM,"CC(C)c1onc(-c2c(Cl)cccc2Cl)c1COc1ccc2cc(-c3cc(C(=O)O)ccn3)ccc2c1 [Example 21, 2-[6-({[3-(2,6-Dichlorophenyl)-5-(1-methylethyl)-4-isoxazolyl]methyl}oxy)-2-naphthalenyl]-4-pyridinecarboxylic acid]"
22,102 to 1000 nM,"CC(C)c1onc(-c2c(Cl)cccc2Cl)c1COc1ccc2cc(-c3ccc(C(=O)O)cc3)ccc2c1 [Example 22, 4-[6-({[3-(2,6-Dichlorophenyl)-5-(1-methylethyl)-4-isoxazolyl]methyl}oxy)-2-naphthalenyl]benzoic acid]"
